Assay results reported in PubChem BioAssay (NCI).
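In this assay, cells in 96-well plates receive the compound at five concentrations for 48 hours. Endpoints are linearly interpolated between the surrounding concentrations. TGI denotes the concentration required for complete inhibition of growth.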

Key:
Assay in all cases: DTP human tumour cell line panel, 48 h
786-0 renal = tested on: 786-0 renal
A498 renal = tested on: A498 renal
A549 NSCLC = tested on: A549 NSCLC
ACHN renal = tested on: ACHN renal
BT-549 breast = tested on: BT-549 breast
CCRF-CEM leukemia = tested on: CCRF-CEM leukemia
COLO 205 colon = tested on: COLO 205 colon
DU-145 prostate = tested on: DU-145 prostate
EKVX NSCLC = tested on: EKVX NSCLC
HCC-2998 colon = tested on: HCC-2998 colon
HCT-116 colon = tested on: HCT-116 colon
HL-60(TB) leukemia = tested on: HL-60(TB) leukemia
HOP-62 NSCLC = tested on: HOP-62 NSCLC
HOP-92 NSCLC = tested on: HOP-92 NSCLC
HS 578T breast = tested on: HS 578T breast
HT29 colon = tested on: HT29 colon
IGROV1 ovarian = tested on: IGROV1 ovarian
K-562 leukemia = tested on: K-562 leukemia
KM12 colon = tested on: KM12 colon
LOX IMVI melanoma = tested on: LOX IMVI melanoma
M14 melanoma = tested on: M14 melanoma
MALME-3M melanoma = tested on: MALME-3M melanoma
MCF7 breast = tested on: MCF7 breast
MDA-MB-231 breast = tested on: MDA-MB-231 breast
MDA-MB-435 = tested on: MDA-MB-435
MDA-N = tested on: MDA-N
MOLT-4 leukemia = tested on: MOLT-4 leukemia
NCI-H226 lung = tested on: NCI-H226 lung
NCI-H23 lung = tested on: NCI-H23 lung
NCI-H460 lung = tested on: NCI-H460 lung
NCI-H522 lung = tested on: NCI-H522 lung
OVCAR-3 ovarian = tested on: OVCAR-3 ovarian
OVCAR-4 ovarian = tested on: OVCAR-4 ovarian
OVCAR-5 ovarian = tested on: OVCAR-5 ovarian
OVCAR-8 ovarian = tested on: OVCAR-8 ovarian
PC-3 prostate = tested on: PC-3 prostate
RPMI-8226 leukemia = tested on: RPMI-8226 leukemia
RXF 393 renal = tested on: RXF 393 renal
SF-268 CNS = tested on: SF-268 CNS
SF-295 CNS = tested on: SF-295 CNS
SF-539 CNS = tested on: SF-539 CNS
SK-MEL-28 melanoma = tested on: SK-MEL-28 melanoma
SK-MEL-5 melanoma = tested on: SK-MEL-5 melanoma
SK-OV-3 ovarian = tested on: SK-OV-3 ovarian
SN12C renal = tested on: SN12C renal
SNB-19 CNS = tested on: SNB-19 CNS
SNB-75 CNS = tested on: SNB-75 CNS
SR leukemia = tested on: SR leukemia
SW-620 colon = tested on: SW-620 colon
T-47D breast = tested on: T-47D breast
TK-10 renal = tested on: TK-10 renal
U251 CNS = tested on: U251 CNS
UACC-257 melanoma = tested on: UACC-257 melanoma
UACC-62 melanoma = tested on: UACC-62 melanoma
UO-31 renal = tested on: UO-31 renal
CAKI-1 renal = tested on: CAKI-1 renal
NCI/ADR-RES ovarian = tested on: NCI/ADR-RES ovarian
SK-MEL-2 melanoma = tested on: SK-MEL-2 melanoma

Compound: O=C(Nn1c(-c2ccccc2)nc2ccccc2c1=O)c1ccc(CS)cc1
- TGI (786-0 renal): 50.5 µM
- TGI (A498 renal): 99.8 µM
- TGI (A549 NSCLC): > 100 µM
- TGI (ACHN renal): > 100 µM
- TGI (BT-549 breast): 52.8 µM
- TGI (CCRF-CEM leukemia): 39.3 µM
- TGI (COLO 205 colon): > 100 µM
- TGI (DU-145 prostate): > 100 µM
- TGI (EKVX NSCLC): > 100 µM
- TGI (HCC-2998 colon): > 100 µM
- TGI (HCT-116 colon): > 100 µM
- TGI (HL-60(TB) leukemia): 50.1 µM
- TGI (HOP-62 NSCLC): > 100 µM
- TGI (HOP-92 NSCLC): > 100 µM
- TGI (HS 578T breast): > 100 µM
- TGI (HT29 colon): > 100 µM
- TGI (IGROV1 ovarian): 88.3 µM
- TGI (K-562 leukemia): > 100 µM
- TGI (KM12 colon): > 100 µM
- TGI (LOX IMVI melanoma): 5.38 µM
- TGI (M14 melanoma): > 100 µM
- TGI (MALME-3M melanoma): > 100 µM
- TGI (MCF7 breast): > 100 µM
- TGI (MDA-MB-231 breast): 96.1 µM
- TGI (MDA-MB-435): > 100 µM
- TGI (MDA-N): > 100 µM
- TGI (MOLT-4 leukemia): 62.4 µM
- TGI (NCI-H226 lung): > 100 µM
- TGI (NCI-H23 lung): > 100 µM
- TGI (NCI-H460 lung): > 100 µM
- TGI (NCI-H522 lung): > 100 µM
- TGI (OVCAR-3 ovarian): > 100 µM
- TGI (OVCAR-4 ovarian): > 100 µM
- TGI (OVCAR-5 ovarian): > 100 µM
- TGI (OVCAR-8 ovarian): > 100 µM
- TGI (PC-3 prostate): > 100 µM
- TGI (RPMI-8226 leukemia): > 100 µM
- TGI (RXF 393 renal): > 100 µM
- TGI (SF-268 CNS): > 100 µM
- TGI (SF-295 CNS): > 100 µM
- TGI (SF-539 CNS): 67.7 µM
- TGI (SK-MEL-28 melanoma): > 100 µM
- TGI (SK-MEL-5 melanoma): > 100 µM
- TGI (SK-OV-3 ovarian): > 100 µM
- TGI (SN12C renal): > 100 µM
- TGI (SNB-19 CNS): > 100 µM
- TGI (SNB-75 CNS): > 100 µM
- TGI (SR leukemia): > 100 µM
- TGI (SW-620 colon): > 100 µM
- TGI (T-47D breast): > 100 µM
- TGI (TK-10 renal): > 100 µM
- TGI (U251 CNS): > 100 µM
- TGI (UACC-257 melanoma): > 100 µM
- TGI (UACC-62 melanoma): > 100 µM
- TGI (UO-31 renal): > 100 µM

Compound: COc1cc2c(cc1OC)-c1cc3ccccc3c[n+]1CC2
- TGI (A549 NSCLC): > 100 µM
- TGI (ACHN renal): > 100 µM
- TGI (BT-549 breast): > 100 µM
- TGI (CAKI-1 renal): > 100 µM
- TGI (CCRF-CEM leukemia): > 100 µM
- TGI (COLO 205 colon): > 100 µM
- TGI (DU-145 prostate): > 100 µM
- TGI (EKVX NSCLC): > 100 µM
- TGI (HCC-2998 colon): > 100 µM
- TGI (HCT-116 colon): > 100 µM
- TGI (HOP-62 NSCLC): > 100 µM
- TGI (HOP-92 NSCLC): > 100 µM
- TGI (HS 578T breast): 94.7 µM
- TGI (HT29 colon): > 100 µM
- TGI (IGROV1 ovarian): > 100 µM
- TGI (K-562 leukemia): > 100 µM
- TGI (KM12 colon): > 100 µM
- TGI (LOX IMVI melanoma): > 100 µM
- TGI (M14 melanoma): > 100 µM
- TGI (MALME-3M melanoma): 54.3 µM
- TGI (MCF7 breast): > 100 µM
- TGI (MDA-MB-231 breast): > 100 µM
- TGI (MDA-MB-435): > 100 µM
- TGI (MDA-N): > 100 µM
- TGI (MOLT-4 leukemia): > 100 µM
- TGI (NCI-H226 lung): > 100 µM
- TGI (NCI-H23 lung): > 100 µM
- TGI (NCI-H460 lung): > 100 µM
- TGI (NCI-H522 lung): 68.3 µM
- TGI (NCI/ADR-RES ovarian): > 100 µM
- TGI (OVCAR-3 ovarian): > 100 µM
- TGI (OVCAR-4 ovarian): > 100 µM
- TGI (OVCAR-5 ovarian): > 100 µM
- TGI (OVCAR-8 ovarian): > 100 µM
- TGI (PC-3 prostate): > 100 µM
- TGI (RPMI-8226 leukemia): > 100 µM
- TGI (RXF 393 renal): > 100 µM
- TGI (SF-268 CNS): > 100 µM
- TGI (SF-295 CNS): > 100 µM
- TGI (SF-539 CNS): > 100 µM
- TGI (SK-MEL-2 melanoma): > 100 µM
- TGI (SK-MEL-28 melanoma): > 100 µM
- TGI (SK-MEL-5 melanoma): > 100 µM
- TGI (SK-OV-3 ovarian): > 100 µM
- TGI (SN12C renal): > 100 µM
- TGI (SNB-19 CNS): > 100 µM
- TGI (SNB-75 CNS): > 100 µM
- TGI (SR leukemia): > 100 µM
- TGI (SW-620 colon): > 100 µM
- TGI (T-47D breast): > 100 µM
- TGI (TK-10 renal): > 100 µM
- TGI (U251 CNS): > 100 µM
- TGI (UACC-257 melanoma): > 100 µM
- TGI (UACC-62 melanoma): > 100 µM
- TGI (UO-31 renal): > 100 µM
